Several values for one entry are separate records, joined by “and”; a condition that tells them apart may be missing. Identical values can stand only once.
Assays:
[1] = biological target: Beta-2 adrenergic receptor (Homo sapiens, UniProt P07550)
[2] = biological target: T1, Alpha-1A adrenergic receptor (Homo sapiens, UniProt P35348); type: functional, cell-based
T1 sequence (P35348 whole entry): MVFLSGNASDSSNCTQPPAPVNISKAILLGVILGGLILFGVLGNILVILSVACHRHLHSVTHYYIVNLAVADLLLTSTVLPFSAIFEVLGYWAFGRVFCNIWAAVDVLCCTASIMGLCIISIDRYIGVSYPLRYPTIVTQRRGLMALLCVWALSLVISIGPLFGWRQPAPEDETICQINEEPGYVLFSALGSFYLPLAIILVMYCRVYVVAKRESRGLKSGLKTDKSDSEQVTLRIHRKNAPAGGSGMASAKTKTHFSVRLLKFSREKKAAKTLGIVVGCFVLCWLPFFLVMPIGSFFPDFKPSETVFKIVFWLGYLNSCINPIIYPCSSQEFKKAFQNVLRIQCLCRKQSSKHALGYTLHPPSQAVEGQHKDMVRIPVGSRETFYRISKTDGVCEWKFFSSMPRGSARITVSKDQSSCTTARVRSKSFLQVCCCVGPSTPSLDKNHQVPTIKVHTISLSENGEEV

[3] = biological target: T1, Alpha-1A adrenergic receptor; type: functional, cell-based; remark: listed apart in the source
Histamine H3 receptor = Histamine H3 receptor (Homo sapiens, UniProt Q9Y5N1)
Sequence of Histamine H3 receptor (Q9Y5N1 whole entry): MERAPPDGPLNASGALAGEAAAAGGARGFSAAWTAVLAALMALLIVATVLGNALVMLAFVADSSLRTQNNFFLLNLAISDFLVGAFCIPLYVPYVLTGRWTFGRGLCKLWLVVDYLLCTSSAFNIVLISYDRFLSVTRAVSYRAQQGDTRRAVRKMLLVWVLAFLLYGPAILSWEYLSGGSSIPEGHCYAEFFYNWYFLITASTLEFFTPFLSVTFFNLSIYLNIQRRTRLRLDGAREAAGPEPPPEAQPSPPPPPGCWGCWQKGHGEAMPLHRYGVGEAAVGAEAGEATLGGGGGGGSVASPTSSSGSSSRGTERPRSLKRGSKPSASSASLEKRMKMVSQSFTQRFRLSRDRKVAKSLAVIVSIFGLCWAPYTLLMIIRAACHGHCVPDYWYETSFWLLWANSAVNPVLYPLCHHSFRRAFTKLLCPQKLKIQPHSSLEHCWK

Cannabinoid receptor 1 = Cannabinoid receptor 1 (Homo sapiens, UniProt P21554); type: functional, cell-based
Sequence of Cannabinoid receptor 1 (P21554 whole entry): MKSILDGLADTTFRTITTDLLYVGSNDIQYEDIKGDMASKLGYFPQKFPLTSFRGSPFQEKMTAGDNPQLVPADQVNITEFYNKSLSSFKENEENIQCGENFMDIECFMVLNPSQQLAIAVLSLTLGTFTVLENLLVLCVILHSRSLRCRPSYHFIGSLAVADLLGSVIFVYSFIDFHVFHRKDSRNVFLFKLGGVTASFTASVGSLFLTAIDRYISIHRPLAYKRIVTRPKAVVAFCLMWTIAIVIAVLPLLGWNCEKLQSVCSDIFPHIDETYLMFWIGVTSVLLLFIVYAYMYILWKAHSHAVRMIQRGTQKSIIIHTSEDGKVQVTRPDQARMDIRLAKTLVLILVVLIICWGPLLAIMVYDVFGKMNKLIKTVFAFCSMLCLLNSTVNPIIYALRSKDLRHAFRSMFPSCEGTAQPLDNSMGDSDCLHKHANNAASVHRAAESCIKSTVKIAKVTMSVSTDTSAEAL

[4] = biological target: T2, 5-hydroxytryptamine receptor 1A (Homo sapiens, UniProt P08908); type: functional, cell-based
T2 sequence (P08908 whole entry): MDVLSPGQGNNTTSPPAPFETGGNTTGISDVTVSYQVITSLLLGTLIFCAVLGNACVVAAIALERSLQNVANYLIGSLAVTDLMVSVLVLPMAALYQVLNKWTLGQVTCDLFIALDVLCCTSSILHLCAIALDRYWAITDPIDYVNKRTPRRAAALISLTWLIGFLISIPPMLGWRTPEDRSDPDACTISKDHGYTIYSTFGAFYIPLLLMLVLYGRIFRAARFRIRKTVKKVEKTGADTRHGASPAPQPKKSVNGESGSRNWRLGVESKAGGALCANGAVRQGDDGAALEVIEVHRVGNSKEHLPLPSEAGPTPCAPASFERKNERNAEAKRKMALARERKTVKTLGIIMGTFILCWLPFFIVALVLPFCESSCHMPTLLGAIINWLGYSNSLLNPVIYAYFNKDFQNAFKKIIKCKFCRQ

[5] = biological target: T3, Alpha-2A adrenergic receptor (Homo sapiens, UniProt P08913); type: functional, cell-based
T3 sequence (P08913 whole entry): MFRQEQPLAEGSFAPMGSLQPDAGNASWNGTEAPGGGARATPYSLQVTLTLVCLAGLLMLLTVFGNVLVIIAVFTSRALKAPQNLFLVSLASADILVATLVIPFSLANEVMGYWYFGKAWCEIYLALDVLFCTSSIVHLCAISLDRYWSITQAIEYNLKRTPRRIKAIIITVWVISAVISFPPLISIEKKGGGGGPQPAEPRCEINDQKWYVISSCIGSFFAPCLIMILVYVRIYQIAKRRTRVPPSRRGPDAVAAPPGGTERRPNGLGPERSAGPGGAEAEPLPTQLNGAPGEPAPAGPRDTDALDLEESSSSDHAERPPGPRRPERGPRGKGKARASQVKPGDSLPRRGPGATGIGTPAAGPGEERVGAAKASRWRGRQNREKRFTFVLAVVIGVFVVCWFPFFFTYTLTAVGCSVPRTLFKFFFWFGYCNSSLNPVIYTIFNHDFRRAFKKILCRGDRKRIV

Melanocortin receptor 4 = Melanocortin receptor 4 (Homo sapiens, UniProt P32245)
Sequence of Melanocortin receptor 4 (P32245 whole entry): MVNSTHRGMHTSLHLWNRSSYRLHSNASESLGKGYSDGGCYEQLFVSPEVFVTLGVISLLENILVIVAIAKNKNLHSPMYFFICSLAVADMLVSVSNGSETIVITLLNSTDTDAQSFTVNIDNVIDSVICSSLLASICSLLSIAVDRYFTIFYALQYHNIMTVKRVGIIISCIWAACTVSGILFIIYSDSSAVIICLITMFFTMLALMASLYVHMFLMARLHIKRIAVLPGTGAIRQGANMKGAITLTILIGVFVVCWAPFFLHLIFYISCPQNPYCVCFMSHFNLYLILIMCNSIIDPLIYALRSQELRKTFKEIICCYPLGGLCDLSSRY

D(1A) dopamine receptor = D(1A) dopamine receptor (Homo sapiens, UniProt P21728); type: functional, cell-based
Sequence of D(1A) dopamine receptor (P21728 whole entry): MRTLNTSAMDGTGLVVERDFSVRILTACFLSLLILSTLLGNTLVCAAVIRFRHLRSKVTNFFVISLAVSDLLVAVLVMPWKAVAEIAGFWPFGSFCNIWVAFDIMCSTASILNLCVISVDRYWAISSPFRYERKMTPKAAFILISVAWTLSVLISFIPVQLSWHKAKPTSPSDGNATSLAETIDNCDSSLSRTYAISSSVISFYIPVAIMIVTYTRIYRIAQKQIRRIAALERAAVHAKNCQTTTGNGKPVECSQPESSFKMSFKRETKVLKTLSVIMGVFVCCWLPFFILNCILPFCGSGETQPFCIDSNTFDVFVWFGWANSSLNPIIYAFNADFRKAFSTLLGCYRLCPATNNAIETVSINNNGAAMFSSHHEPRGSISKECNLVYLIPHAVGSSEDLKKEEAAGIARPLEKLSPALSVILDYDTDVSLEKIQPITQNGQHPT

Histamine H1 receptor = Histamine H1 receptor (Homo sapiens, UniProt P35367)
Sequence of Histamine H1 receptor (P35367 whole entry): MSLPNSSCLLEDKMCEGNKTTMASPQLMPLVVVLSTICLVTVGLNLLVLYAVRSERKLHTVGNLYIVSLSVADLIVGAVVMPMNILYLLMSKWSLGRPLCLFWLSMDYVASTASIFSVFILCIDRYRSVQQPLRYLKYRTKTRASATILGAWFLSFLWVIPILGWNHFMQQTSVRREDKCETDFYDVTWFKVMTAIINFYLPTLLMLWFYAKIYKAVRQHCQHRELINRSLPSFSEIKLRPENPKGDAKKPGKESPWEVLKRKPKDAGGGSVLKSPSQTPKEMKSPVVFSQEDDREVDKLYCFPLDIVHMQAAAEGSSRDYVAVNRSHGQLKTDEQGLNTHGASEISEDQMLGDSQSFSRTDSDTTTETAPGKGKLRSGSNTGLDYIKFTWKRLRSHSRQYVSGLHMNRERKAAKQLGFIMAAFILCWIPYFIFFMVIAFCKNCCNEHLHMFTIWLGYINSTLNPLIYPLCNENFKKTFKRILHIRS
Further: assay procedure not described here.

Sequence of Beta-2 adrenergic receptor (P07550 whole entry): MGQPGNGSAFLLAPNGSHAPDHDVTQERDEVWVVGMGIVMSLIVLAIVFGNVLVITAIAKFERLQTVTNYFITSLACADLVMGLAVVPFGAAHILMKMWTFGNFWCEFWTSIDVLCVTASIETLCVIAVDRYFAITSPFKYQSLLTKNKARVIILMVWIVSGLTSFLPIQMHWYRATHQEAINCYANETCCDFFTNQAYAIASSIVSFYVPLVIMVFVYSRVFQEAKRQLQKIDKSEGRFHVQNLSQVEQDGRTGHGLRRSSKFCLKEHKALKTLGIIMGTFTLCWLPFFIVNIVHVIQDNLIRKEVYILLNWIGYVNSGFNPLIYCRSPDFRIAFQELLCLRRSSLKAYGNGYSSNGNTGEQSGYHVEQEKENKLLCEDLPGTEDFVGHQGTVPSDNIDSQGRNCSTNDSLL

SMILES | AC50 [1] [µM] | AC50 [2] | AC50 [3] [µM] | AC50 (Histamine H3 receptor) [µM] | AC50 (Cannabinoid receptor 1) [µM] | AC50 [4] [µM] | AC50 [5] [µM] | AC50 (Melanocortin receptor 4) [µM] | AC50 (D(1A) dopamine receptor) [µM] | AC50 (Histamine H1 receptor) [µM]
CCC1(c2ccccc2)CCC(=O)NC1=O (stereo not given) [GLUTETHIMIDE] | > 10 | > 30 µM | > 30 | > 10 | > 30 | > 30 | > 10 | > 10 | > 10 | > 10
Nc1ncn([C@H]2C[C@H](O)[C@@H](CO)O2)c(=O)n1 [DECITABINE] |  |  |  | > 30 |  | > 30 | > 30 | > 30 | > 30 | > 30
CCOC(=O)c1cncn1[C@H](C)c1ccccc1 [ETOMIDATE] | > 10 | > 30 µM | > 30 | > 10 |  | > 10 | > 10 | > 10 | > 10 | > 10
CCC(=O)O[C@H]1CC[C@H]2[C@@H]3CCC4=CC(=O)CC[C@]4(C)[C@H]3CC[C@]12C [TESTOSTERONE PROPIONATE] | > 10 | > 30 µM | > 30 |  | > 30 | > 10 | > 10 | > 10 | > 10 | > 10
CC(C)NCC(O)c1ccc(O)c(O)c1 (stereo not given) [ISOPROTERENOL] |  |  |  | > 10 | > 30 | > 10 |  | > 30 | > 30 | 
CC(C)(C)C(=O)OCC(=O)[C@H]1CC[C@H]2[C@@H]3CCC4=CC(=O)CC[C@]4(C)[C@H]3CC[C@]12C [DESOXYCORTICOSTERONE PIVALATE] | > 10 | > 30 µM | > 30 | > 10 | > 30 |  | > 10 | > 10 | > 10 | > 10
CC(C)COCC(CN(Cc1ccccc1)c1ccccc1)N1CCCC1 (stereo not given) [BEPRIDIL] | > 30 |  |  | > 30 |  | > 10 | > 30 | 15.4 | > 30 | 8.6
CN1CCC(=C2c3ccccc3CCc3cccnc32)CC1 [AZATADINE] | > 10 | > 30 µM | > 30 | > 10 | > 30 |  | > 10 | > 30 | > 10 | 0.0066
CC1OC2(CS1)CN1CCC2CC1 (stereo not given) [CEVIMELINE] | > 10 | > 30 µM | > 30 |  |  | > 10 | > 10 | > 10 | > 30 | > 30
CC(N)C(O)c1ccccc1 (stereo not given) [PHENYLPROPANOLAMINE] | > 10 | > 30 µM | > 30 | > 10 |  | > 10 | > 10 | > 30 | > 10 | > 10
C[C@H](Cc1ccc(O)c(O)c1)[C@@H](C)Cc1ccc(O)c(O)c1 [MASOPROCOL] | > 10 | 8.4 µM and > 30 µM (2×) | > 30 | > 10 | > 30 |  | > 10 | > 10 | > 10 | > 30

— ChEMBL document CHEMBL5291721, “A preclinical secondary pharmacology resource illuminates target-adverse drug reaction associations of marketed drugs” (Nat Commun, 2023)
